From patent publication US11427586B2, “1,2,4-oxadiazole derivatives as liver X receptor agonists” (NOVARTIS AG, priority 2019, dated 2022)
Where two headings read alike, the source gives them in different places.

Assays:
[1] = system: SCD1; assay: Measurement of SCD1 expression in SZ95-SCD1-HiBit cells (HiBiT assay); type: cell-based; details: Homo sapiens, 48 h; for EC50: SCD1 protein production, luminescence, initial dilution 1:3 in DMSO, read-out: HiBit EC50
[2] = system: SZ95 sebocytes; assay: Sentinel Lipid Assay (SLA), desaturation index in SZ95 sebocytes; type: cell-based; details: Homo sapiens, 72 h; for EC50: desaturation index, lowest dose used 4.6 nM, read-out: SLA EC50
In short: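 SZ95 human sebocytes on fibronectin-coated plates, dosed 72 h at 37 °C with 1:3 dilutions from 10 μM; lipids extracted with deuterated triglyceride internal standards and quantified by LC-MS/MS (MRM) as 11 sentinel lipids. Desaturation index from elastic-net coefficients, normalized to DMSO; Amax relative to a reference LXR agonist.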

[3] = system: naive Sprague Dawley rats; assay: In vivo measurement of lowered meibum melting temperature; design: species or system rat; details: for Change of Tm: meibum melting point versus vehicle, 1% suspension eye drops twice a day for fourteen days, rats; for meibum melting temperature (in words): rat eyes, concentration of 1%; for Mean ± SEM of Compound (meibum melting point): rat meibum, DSC peak temperature, 1% suspension as eye drops twice a day for fourteen days, in °C
Procedure: In Vivo Measurement of Lowered Meibum Melting Temperature
For compounds 8 and 57, the lowering of rat meibum melting temperature was measured in naive Sprague Dawley rats. The test animals were administered either vehicle, or a suspension of 1% of compound 8 or 1% of compound 57, as eye drops twice a day for fourteen days. The rat meibum was collected after administration of the compounds and analyzed by differential scanning calorimetry to measure the melting point. The lowering of meibum melting point in rats administered compound 8 or compound 57 was compared to the vehicle.
Melting properties of meibum were obtained using differential scanning calorimetry thermograms, recorded on a TA Discovery Q5000 (ThermoAnalytical). Samples were sealed in standard 40 μl aluminum pans and subjected to a heat-cool-heat cycle with melting temperatures being recorded on the second heating ramp. The samples were first heated to 150° C. at 30K/min then cooled −30° C. at 30K/min. Next, the sample was heated to 75° C. with an underlying heating rate of 2K/min, a period of modulation of 60 seconds and a temperature amplitude of modulation of 1° C. Dry N2 gas, at a flow rate of 50 mL/min was used to purge the DSC equipment during the measurement. Onset of melting and peak temperatures were recorded with peak temperature quoted as the melting point.
Results from the assay are shown Table 3 and in FIG. 4. Results were analyzed using an unpaired t test with Welch's correction.

[4] = normalized Amax based on the reference compound Amax of 100%, read-out: HiBit Normalized Amax
[5] = SZ95-SCD1-HiBit cells, compared to reference compound, read-out: HiBit Amax
[6] = normalized Amax based on the reference compound Amax of 100%, read-out: SLA Normalized Amax
[7] = SZ95 cells, compared to reference compound, read-out: SLA Amax

With `CC(C)CS(=O)(=O)c1ccccc1Oc1ccc(-c2noc(CN3C(=O)N(CCN4CCOCC4)C4(CCN(C5CCC5)CC4)C3=O)n2)cc1C(F)(F)F` [Compound 8, 8-cyclobutyl-3-((3-(4-(2-(isobutylsulfonyl)phenoxy)-3-(trifluoromethyl)phenyl)-1,2,4-oxadiazol-5-yl)methyl)-1-(2-morpholinoethyl)-1,3,8-triazaspiro[4.5]decane-2,4-dione] the Emax [1, 4] was 120%, the EC50 ([1]; SZ95-SCD1-HiBit cells) was 0.111 nM and the Emax [1, 5] was 114%. It also gave an Emax [2, 6] of 230%, an EC50 ([2]; SZ95 cells) of at most 4.6 nM and an Emax [2, 7] of 221%. For the same compound, the “Change of Tm” value [3] was −1.977 ± 0.3731, the “meibum melting temperature (in words)” value [3] was “decrease” and the “Mean ± SEM of Compound (meibum melting point)” value [3] was 28.29 ± 0.2920.
In the case of `CC(C)CS(=O)(=O)c1ccccc1Oc1ccc(-c2noc(CN3C(=O)N(CCN4CCOCC4)C(C)(C)C3=O)n2)cc1C(F)(F)F` [Compound 57, 3-((3-(4-(2-(isobutylsulfonyl)phenoxy)-3-(trifluoromethyl)phenyl)-1,2,4-oxadiazol-5-yl)methyl)-5,5-dimethyl-1-(2-morpholinoethyl)imidazolidine-2,4-dione], the Emax [1, 4] is reported as 88.4%, the EC50 ([1]; SZ95-SCD1-HiBit cells) is reported as 0.217 nM and the Emax [1, 5] is reported as 84.1%. It also gave an Emax [2, 6] of 176%, an EC50 ([2]; SZ95 cells) of at most 4.6 nM and an Emax [2, 7] of 169%. For the same compound, the “Change of Tm” value [3] was −2.181 ± 0.3731, the “meibum melting temperature (in words)” value [3] was “decrease” and the “Mean ± SEM of Compound (meibum melting point)” value [3] was 28.08 ± 0.2945.
